These results are taken from patent US20240067633A1, “KETOHEXOKINASE INHIBITOR AND USE THEREOF” (SICHUAN HAISCO PHARMACEUTICAL CO., LTD., priority 2020, published 2024).

A short description of data set [1]: Pharmacokinetic experiment in mice. Type of data set: in vivo, ICR mice. On the procedure:
3.1 Experimental animals: male ICR mice, about 22 g, 6-8 weeks old, 18 mice/compound, purchased from Hunan SJA Laboratory Animal Co., Ltd.
3.2 Experimental design: On the day of the experiment, 18 ICR mice were randomly grouped according to their body weight. The animals were fasted with water available for 12 to 14 h one day before the administration, and were fed 4 h after the administration.
(§1) Vehicle for intravenous administration: 5% DMA+5% Solutol+90% Saline; Vehicle for intragastric administration: 0.5% MC
Before and after the administration, 0.08 mL of blood was taken from the orbit of the animals under isoflurane anaesthesia and placed in an EDTAK2 centrifuge tube. The blood was centrifuged at 5000 rpm and 4° C. for 10 min to collect plasma. Blood sampling time points for the intravenous administration group: 0, 5 min, 15 min, 30 min, 1 h, 2 h, 4 h, 6 h, 8 h, and 24 h; and blood sampling time points for the intragastric administration group: 0, 5 min, 15 min, 30 min, 1 h, 2 h, 4 h, 6 h, 8 h, and 24 h. Before analysis and detection, all samples were stored at −80° C.

Data set [2] in a line: Pharmacokinetic experiment in rats. Type of data set: in vivo, SD rats. On the procedure:
2.1 Experimental animals: Male SD rats, about 220 g, 6-8 weeks old, 6 rats/compound, purchased from Hunan SJA Laboratory Animal Co., Ltd.
2.2 Experimental design: On the day of the experiment, 6 SD rats were randomly grouped according to their body weight. The animals were fasted with water available for 12 to 14 h one day before the administration, and were fed 4 h after the administration.
as §1
Before and after the administration, 0.15 mL of blood was taken from the orbit of the animals under isoflurane anaesthesia and placed in an EDTAK2 centrifuge tube. The blood was centrifuged at 5000 rpm and 4° C. for 10 min to collect plasma. Blood sampling time points for the intravenous administration group: 0, 5 min, 15 min, 30 min, 1 h, 2 h, 4 h, 6 h, 8 h, and 24 h; and blood sampling time points for the intragastric administration group: 0, 5 min, 15 min, 30 min, 1 h, 2 h, 4 h, 6 h, 8 h, and 24 h. Before analysis and detection, all samples were stored at −80° C.

Data set [3] deals with CYP3A4 (Homo sapiens (Human), UniProt P08684). Put plainly: CYP450 enzyme inhibition test, mixed human liver microsomes. The conditions noted are these: 0.05-50 μM. Type of data set: in vitro ADME. Background: Microsomes from liver hold many membrane-bound enzymes, among them those of drug oxidation.
Data set [4] has as its target CYP2D6 (Homo sapiens (Human), UniProt P10635). The data set is described as above. Type of data set: in vitro ADME. Particulars: 0.05-50 μM.
Data set [5] addresses hKHK-C (Homo sapiens (Human), UniProt P50053). Put plainly: Experiment of inhibitory activity against KHK in vitro (ADP-glo), hKHKc. Type of data set: biochemical. Particulars: purified hKHK-C, 50 mM fructose, 0.2 mM ATP. On the procedure:
(§2) With the involvement of ATP, fructokinase phosphorylates fructose to produce fructose-1-phosphate and ADP. In this experiment, the effect of the compound on the activity of fructokinase was determined by measuring the amount of ADP produced in the process. Test compound stocks were prepared in DMSO. Before use, the stocks were 3-fold serially diluted with assay buffers (25 mM HEPES, 300 mM KCl, 10 mM MgCl2, 10 mM CaCl2), pH 7.0) to 5-fold the final concentration tested, and the DMSO content was adjusted to 1%. In a 384-well plate, the test compound was added to achieve a final concentration of 7.6 nM to 100 μM (assay buffers containing 1% DMSO were added to background and control wells). 5 ng/μL purified hKHK-C (assay buffers were added to background wells), 50 mM fructose and 0.2 mM ATP were added to reach a total volume of 10 μL and reacted at room temperature for 30 min. After the reaction was completed, 10 μL of ADP-glo (promega) was added and mixed uniformly, and the plate was incubated at room temperature for 40 min. Then the ADP-glo was added again, mixed uniformly and reacted for 40 min. The spontaneous luminescence intensity was measured using an Envision microplate reader. The inhibition rate of the compound against […] was calculated using the following formula,
(§3) [formula] • wherein • RLUZPE=luminescence intensity of control well • RLUblank=luminescence intensity of background well • RLUcpd=luminescence intensity of test compound well
(§4) A curve of inhibition rate (y-axis) versus compound concentration (x-axis) was fitted by logarithmic (inhibitor) and normalized response (variable slope) in GraphPad Prism, and EC50 was calculated.

In data set [6] the target is hKHKa (Homo sapiens (Human), UniProt P50053). Put plainly: Experiment of inhibitory activity against KHK in vitro (ADP-glo), hKHKa. Type of data set: biochemical. On the procedure: [The source words this procedure for another variant and reports this variant under the same test.] as §2, §3, §4
In general terms: In ADP-Glo the light output rises with the ADP produced.

For data set [7], the target named is mKHKc (Mus musculus (Mouse), UniProt P97328). Put plainly: Experiment of inhibitory activity against KHK in vitro (ADP-glo), mKHKc. Type of data set: biochemical. How it is done:
[The source words this procedure for another species and reports this species under the same test.] as §2, with “5 ng/μL purified hKHK-C (assay buffers were added to background wells), 50 mM fructose and 0.2 mM ATP were added to reach a total volume of 10 μL and reacted at room temperature for 30 min. After the reaction was completed, 10 μL of ADP-glo (promega) was added and mixed uniformly, and the plate was incubated at room temperature for 40 min. Then the ADP-glo was added again, mixed uniformly and reacted for 40 min.” left out
as §3, §4

Data set [8] has as its target rKHKc (Rattus norvegicus (Rat), UniProt Q02974). Put plainly: Experiment of inhibitory activity against KHK in vitro (ADP-glo), rKHKc. Type of data set: biochemical. On the procedure: [The source words this procedure for another species and reports this species under the same test.] as §2, with “5 ng/μL purified hKHK-C (assay buffers were added to background wells), 50 mM fructose and 0.2 mM ATP were added to reach a total volume of 10 μL and reacted at room temperature for 30 min. After the reaction was completed, 10 μL of ADP-glo (promega) was added and mixed uniformly, and the plate was incubated at room temperature for 40 min. Then the ADP-glo was added again, mixed uniformly and reacted for 40 min.” left out
as §3, §4

hKHK-C, sequence (P50053 whole entry): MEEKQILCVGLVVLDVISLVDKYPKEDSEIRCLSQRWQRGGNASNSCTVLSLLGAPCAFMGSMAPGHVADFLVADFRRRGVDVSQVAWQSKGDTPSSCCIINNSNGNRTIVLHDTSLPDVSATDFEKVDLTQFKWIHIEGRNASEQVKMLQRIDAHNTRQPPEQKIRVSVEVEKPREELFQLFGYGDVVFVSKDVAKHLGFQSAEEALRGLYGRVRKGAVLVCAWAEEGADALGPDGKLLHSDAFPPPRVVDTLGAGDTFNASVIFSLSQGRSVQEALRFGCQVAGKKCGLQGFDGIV
hKHKa, sequence (P50053 other isoform, or with tags, fused parts or gaps): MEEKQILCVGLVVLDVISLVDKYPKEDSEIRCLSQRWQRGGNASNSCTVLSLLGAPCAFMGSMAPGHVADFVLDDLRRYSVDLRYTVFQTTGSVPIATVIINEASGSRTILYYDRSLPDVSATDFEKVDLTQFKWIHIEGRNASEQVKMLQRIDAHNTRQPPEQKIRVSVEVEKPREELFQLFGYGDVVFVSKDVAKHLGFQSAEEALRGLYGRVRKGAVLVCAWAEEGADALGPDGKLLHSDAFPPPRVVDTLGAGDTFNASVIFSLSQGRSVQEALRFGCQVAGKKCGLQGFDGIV
CYP3A4, sequence (P08684 whole entry): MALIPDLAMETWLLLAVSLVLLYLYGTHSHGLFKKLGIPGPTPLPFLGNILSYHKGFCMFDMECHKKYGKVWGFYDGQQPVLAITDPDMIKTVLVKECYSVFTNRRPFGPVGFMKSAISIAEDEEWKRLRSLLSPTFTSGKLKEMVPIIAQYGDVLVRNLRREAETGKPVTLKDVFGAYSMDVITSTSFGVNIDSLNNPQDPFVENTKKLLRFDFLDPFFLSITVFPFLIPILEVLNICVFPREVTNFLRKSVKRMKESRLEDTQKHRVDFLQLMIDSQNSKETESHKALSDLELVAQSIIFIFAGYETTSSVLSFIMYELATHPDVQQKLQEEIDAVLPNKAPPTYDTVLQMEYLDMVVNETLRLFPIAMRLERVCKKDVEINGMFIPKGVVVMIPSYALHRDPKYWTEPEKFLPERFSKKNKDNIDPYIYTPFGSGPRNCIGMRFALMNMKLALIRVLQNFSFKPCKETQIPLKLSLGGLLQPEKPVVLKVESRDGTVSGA
mKHKc, sequence (P97328 whole entry): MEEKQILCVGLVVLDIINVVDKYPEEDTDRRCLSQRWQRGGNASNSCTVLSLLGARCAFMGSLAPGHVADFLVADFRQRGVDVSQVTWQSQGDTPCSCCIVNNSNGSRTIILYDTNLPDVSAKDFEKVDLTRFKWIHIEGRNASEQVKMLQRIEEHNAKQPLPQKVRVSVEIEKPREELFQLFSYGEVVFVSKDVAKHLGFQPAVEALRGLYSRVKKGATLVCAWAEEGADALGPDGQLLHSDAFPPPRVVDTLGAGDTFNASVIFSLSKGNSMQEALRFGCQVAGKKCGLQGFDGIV
rKHKc, sequence (Q02974 whole entry): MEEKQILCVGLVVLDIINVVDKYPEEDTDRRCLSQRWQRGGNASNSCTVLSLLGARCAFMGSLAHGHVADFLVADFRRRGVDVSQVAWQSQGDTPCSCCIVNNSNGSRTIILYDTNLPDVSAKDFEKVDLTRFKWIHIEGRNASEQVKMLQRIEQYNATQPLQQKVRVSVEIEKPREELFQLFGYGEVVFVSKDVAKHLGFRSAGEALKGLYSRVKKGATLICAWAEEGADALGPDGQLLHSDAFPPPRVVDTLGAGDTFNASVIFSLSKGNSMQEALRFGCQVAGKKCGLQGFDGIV
CYP2D6, sequence (P10635 whole entry): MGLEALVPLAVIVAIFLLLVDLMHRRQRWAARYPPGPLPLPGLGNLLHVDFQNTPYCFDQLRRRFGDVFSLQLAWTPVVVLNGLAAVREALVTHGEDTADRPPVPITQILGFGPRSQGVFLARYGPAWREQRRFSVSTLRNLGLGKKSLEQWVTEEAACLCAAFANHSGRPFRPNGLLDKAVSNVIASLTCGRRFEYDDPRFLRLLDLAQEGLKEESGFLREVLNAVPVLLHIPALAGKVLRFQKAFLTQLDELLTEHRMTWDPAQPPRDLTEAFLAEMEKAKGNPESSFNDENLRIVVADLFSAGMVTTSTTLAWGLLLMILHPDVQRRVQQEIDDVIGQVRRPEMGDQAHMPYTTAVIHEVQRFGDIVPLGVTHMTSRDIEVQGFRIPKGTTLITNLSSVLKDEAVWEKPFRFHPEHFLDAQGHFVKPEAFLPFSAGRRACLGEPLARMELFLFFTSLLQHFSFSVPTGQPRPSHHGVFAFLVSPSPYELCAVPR

Broadly, the Vdss is the apparent volume that relates the amount in the body to the concentration in plasma or blood. Read a high Vdss as extensive tissue distribution. By IC50 is commonly meant the concentration that gives 50% inhibition. A low value points to greater potency. As usually defined, the EC50 is the concentration that produces a half-maximal response. High values mean a less potent agent, low ones a more potent agent. On to “2-((1R,5S,6S)-3-(7,7-difluoro-2-((S)-2-(trifluoromethyl)azetidin-1-yl)-6,7-dihydro-5H-cyclopenta[d]pyrimidin-4-yl)-3-azabicyclo[3.1.1]heptan-6-yl)acetic acid [Isomer 2 of compound 20]”, for which the F was 87.2% in data set [1] (i.g. 3 mg/kg) and 111% in data set [2] (i.g. 5 mg/kg). Besides, the AUC0-t in data set [1] (plasma, i.g. 3 mg/kg) was 4807 ng·h/mL; in data set [1] (plasma, i.v. 1 mg/kg), 1838 ng·h/mL; in data set [2] (plasma, i.g. 5 mg/kg), 64058 ng·h/mL; in data set [2] (plasma, i.v. 1 mg/kg), 11592 ng·h/mL. The CL in data set [1] (plasma, i.v. 1 mg/kg) was 8.84 mL/min/kg; in data set [2] (plasma, i.v. 1 mg/kg), 1.35 mL/min/kg. The Vdss in data set [1] (plasma, i.v. 1 mg/kg) was 0.977 L/kg; in data set [2] (plasma, i.v. 1 mg/kg) it was 0.568 L/kg. Also, the IC50 in data set [3] and in data set [4] was greater than 50000 nM in each case. Moreover, in data set [5], the EC50 was found to be 49.8 nM.
`C[C@H]1CCN1c1nc(N2CCC(CC(=O)O)C2)c2c(c1C#N)C(F)(F)CC2` (single isomer, unassigned) [Isomer 1 of compound 8]: the EC50 in data set [6] was determined as 59.7 nM; in data set [5], 58.6 nM.
`C[C@H]1CCN1c1nc(N2C[C@H]3C[C@@H](C2)[C@@H]3CC(=O)O)c2c(n1)C(F)(F)CCC2` (single isomer, unassigned; isomer 2) [Isomer 2 of compound 3]: the EC50 in data set [7] is 134 nM; in data set [8], 146 nM; in data set [6] it was 51.8 nM; in data set [5], 37.4 nM.
In data set [5], `C[C@H]1CCN1c1nc(N2C[C@H]3C[C@@H](C2)[C@@H]3CC(=O)O)c2c(n1)C(F)(F)CC2` (single isomer, unassigned; isomer 2) [Isomer 2 of compound 4] gave an EC50 of 19.4 nM.
In data set [5], `O=C(O)C[C@H]1[C@@H]2C[C@H]1CN(c1nc(N3CC[C@H]3C(F)F)nc3c1CCC3(F)F)C2` (single isomer, unassigned; isomer 2) [Isomer 2 of compound 19] showed an EC50 of 60.6 nM.
Turning to `C[C@H]1CCN1c1nc(N2CC(CC(=O)O)C2)c2c(c1C#N)C(F)(F)CC2` [Compound 7, (S)-2-(1-(4-cyano-5,5-difluoro-3-(2-methylazetidin-1-yl)-6,7-dihydro-5H-cyclopenta[c]pyridin-1-yl)azetidin-3-yl)acetic acid], the EC50 was found to be 35.2 nM in data set [6] and 36.5 nM in data set [5].
In the case of `[2H]C([2H])([2H])[C@H]1CCN1c1nc(N2C[C@H]3C[C@@H](C2)C3CC(=O)O)c2c(n1)C(F)(F)CC2` (stereo partly drawn) [Compound 16, 2-((1R,5S,6R)-3-(7,7-difluoro-2-((S)-2-(methyl-d3)azetidin-1-yl)-6,7-dihydro-5H-cyclopenta[d]pyrimidin-4-yl)-3-azabicyclo[3.1.1]heptan-6-yl)acetic acid], the EC50 in data set [5] worked out at 37.7 nM.
For `[2H]C([2H])([2H])[C@H]1CCN1c1nc(N2CC(CC(=O)O)C2)c2c(c1C#N)C(F)(F)CC2` [Compound 18, (S)-2-(1-(4-cyano-5,5-difluoro-3-(2-(methyl-d3)azetidin-1-yl)-6,7-dihydro-5H-cyclopenta[c]pyridin-1-yl)azetidin-3-yl)acetic acid], in data set [5], the EC50 stood at 52.7 nM.
